Like-named read-outs stand apart in the source and are kept apart here.
Tests used:
[1] = system: patients with hypermenorrhea and/or patients with hypermenorrhea-associated gynecologic diseases (iron-deficiency anemia patients)
Method: (§1) This test was a three-stage safety and efficacy clinical trial at multi-facilities. The first stage was a pre-observation period (Day −40 to Day −1), the second stage was an administration period (Day 1 to Day 48) (efficacy and safety evaluation period), and the third stage was a post-observation period (Day 49 to Day 63) (efficacy and safety evaluation period). The safety evaluation and efficacy evaluation were performed by multi-facility collaboration, placebo control, random allocation, double-blind trial, and parallel group comparison test.
(§2) The administration period of the trial drug is seven weeks which starts from the next day of the Week 0 visit to the day before the Week 7 visit, provided that the trial drug is not taken on the scheduled Week 3 visit.
(§3) The blood hemoglobin value (Hb), the serum iron level, the serum ferritin value, the total iron-binding capacity (TIBC) and the transferrin saturation rate (TSAT), and the mean corpuscular volume (MCV) were each examined at the observation start date, Week 0, Week 3, Week 7, the end of administration and the consultation at nine weeks after Week 0; the hepcidin concentration (Hepcidin 25) and the serum soluble transferrin receptor concentration (sTfR) were each examined on Week 0, Week 3 and Week 7 and at the end of administration; and the C-terminal FGF23 value (cFGF23) and the intact FGF23 value (iFGF23) were each examined on Week 0 and Week 7 and at the end of administration.

[2] = system: patients with hypermenorrhea and/or patients with hypermenorrhea-associated gynecologic diseases (iron-deficiency anemia patients); assay: Phase II clinical trial of JTT-751: mean corpuscular volume value (MCV); type: in vivo, human
Method: as §1
(§4) (1) Japanese patients who are 20 or more and less than 65 years old at the time of agreement and can visit an outpatient clinic (2) Patients who have an Hb value (measured using HemoCue® Hb 201 DM analyzer in the institute of clinical practice) of 7.0 g/dL or more and less than 11.0 g/dL on both the observation start date and Week 0, and the difference between the two days is 1.0 g/dL or less (3) Patients with a TIBC of 360 μg/dL or more or a serum ferritin value of less than 12 ng/mL on the observation start date
as §2
(2) Subsidiary evaluation items 1) Erythrocyte-related examination values and amount of change from Week 0 at each observation date 2) Iron-related test values and amount of change from Week 0 at each observation date 3) Achievement rate of target Hb value (female; 12.0 g/dL or more, male; 13.0 g/dL or more) at each observation date 4) Achievement rate of 1.0 g/dL or more and achievement rate of 2.0 g/dL or more in Hb value improvement from Week 0 at each observation date 5) Average daily change of Hb value from Week 0 to each observation date
as §3

[3] = system: patients with hypermenorrhea and/or patients with hypermenorrhea-associated gynecologic diseases (iron-deficiency anemia patients); assay: Phase II clinical trial of JTT-751: intact FGF23 value (iFGF23); type: in vivo, human
Method: as §1, §4, §2, §3

[4] = 250 mg/day, 9 weeks after Week 0
[5] = 250 mg/day, End of administration
[6] = 500 mg/day, 9 weeks after Week 0
[7] = 500 mg/day, End of administration
[8] = 1000 mg/day, 9 weeks after Week 0
[9] = 1000 mg/day, End of administration
[10] = 1500 mg/day, 9 weeks after Week 0
[11] = 1500 mg/day, End of administration
[12] = 9 weeks after Week 0, JTT-751 250 mg group
[13] = 9 weeks after Week 0, JTT-751 500 mg group
[14] = 9 weeks after Week 0, JTT-751 1000 mg group
[15] = 9 weeks after Week 0, JTT-751 1500 mg group
[16] = Administration start date, JTT-751 250 mg group
[17] = Administration start date, JTT-751 500 mg group
[18] = Administration start date, JTT-751 1000 mg group
[19] = Administration start date, JTT-751 1500 mg group
[20] = End of administration, JTT-751 250 mg group
[21] = End of administration, JTT-751 500 mg group
[22] = End of administration, JTT-751 1000 mg group
[23] = End of administration, JTT-751 1500 mg group
[24] = Week 0 (baseline), JTT-751 250 mg group
[25] = Week 0 (baseline), JTT-751 500 mg group
[26] = Week 0 (baseline), JTT-751 1000 mg group
[27] = Week 0 (baseline), JTT-751 1500 mg group

## Ferric citrate [JTT-751]
[1]; [4]
  TSAT, profile from the baseline (value at Week 0), Mean: 4.29%
  TSAT, profile from the baseline (value at Week 0), Median: 3.85%
[1]; [5]
  TSAT, profile from the baseline (value at Week 0), Mean: 9.12%
  TSAT, profile from the baseline (value at Week 0), Median: 7.60%
[1]; 250 mg/day, Week 3
  TSAT, profile from the baseline (value at Week 0), Mean: 5.26%
  TSAT, profile from the baseline (value at Week 0), Median: 4.85%
[1]; 250 mg/day, Week 7
  TSAT, profile from the baseline (value at Week 0), Mean: 9.12%
  TSAT, profile from the baseline (value at Week 0), Median: 7.60%
[1]; [6]
  TSAT, profile from the baseline (value at Week 0), Mean: 7.27%
  TSAT, profile from the baseline (value at Week 0), Median: 5.90%
[1]; [7]
  TSAT, profile from the baseline (value at Week 0), Mean: 12.27%
  TSAT, profile from the baseline (value at Week 0), Median: 12.35%
[1]; 500 mg/day, Week 3
  TSAT, profile from the baseline (value at Week 0), Mean: 8.57%
  TSAT, profile from the baseline (value at Week 0), Median: 3.60%
[1]; 500 mg/day, Week 7
  TSAT, profile from the baseline (value at Week 0), Mean: 12.27%
  TSAT, profile from the baseline (value at Week 0), Median: 12.35%
[1]; [8]
  TSAT, profile from the baseline (value at Week 0), Mean: 12.42%
  TSAT, profile from the baseline (value at Week 0), Median: 12.60%
[1]; [9]
  TSAT, profile from the baseline (value at Week 0), Mean: 15.46%
  TSAT, profile from the baseline (value at Week 0), Median: 16.20%
[1]; 1000 mg/day, Week 3
  TSAT, profile from the baseline (value at Week 0), Mean: 15.56%
  TSAT, profile from the baseline (value at Week 0), Median: 9.90%
[1]; 1000 mg/day, Week 7
  TSAT, profile from the baseline (value at Week 0), Mean: 15.46%
  TSAT, profile from the baseline (value at Week 0), Median: 16.20%
[1]; [10]
  TSAT, profile from the baseline (value at Week 0), Mean: 11.41%
  TSAT, profile from the baseline (value at Week 0), Median: 9.95%
[1]; [11]
  TSAT, profile from the baseline (value at Week 0), Mean: 16.70%
  TSAT, profile from the baseline (value at Week 0), Median: 16.00%
[1]; 1500 mg/day, Week 3
  TSAT, profile from the baseline (value at Week 0), Mean: 15.59%
  TSAT, profile from the baseline (value at Week 0), Median: 7.90%
[1]; 1500 mg/day, Week 7
  TSAT, profile from the baseline (value at Week 0), Mean: 16.70%
  TSAT, profile from the baseline (value at Week 0), Median: 16.00%
[2]; [12]
  MCV, Mean: 78.9 fL
  MCV, Median: 79.0 fL
[2]; [13]
  MCV, Mean: 80.8 fL
  MCV, Median: 81.0 fL
[2]; [14]
  MCV, Mean: 83.9 fL
  MCV, Median: 84.0 fL
[2]; [15]
  MCV, Mean: 82.4 fL
  MCV, Median: 82.5 fL
[2]; [16]
  MCV, Mean: 71.5 fL
  MCV, Median: 73.0 fL
[2]; [17]
  MCV, Mean: 71.9 fL
  MCV, Median: 72.0 fL
[2]; [18]
  MCV, Mean: 72.5 fL
  MCV, Median: 71.0 fL
[2]; [19]
  MCV, Mean: 71.0 fL
  MCV, Median: 69.0 fL
[2]; [20]
  MCV, Mean: 78.4 fL
  MCV, Median: 79.5 fL
[2]; [21]
  MCV, Mean: 79.8 fL
  MCV, Median: 81.0 fL
[2]; [22]
  MCV, Mean: 82.5 fL
  MCV, Median: 82.0 fL
[2]; [23]
  MCV, Mean: 81.4 fL
  MCV, Median: 81.0 fL
[2]; [24]
  MCV, Mean: 70.8 fL
  MCV, Median: 72.0 fL
[2]; [25]
  MCV, Mean: 70.9 fL
  MCV, Median: 70.5 fL
[2]; [26]
  MCV, Mean: 72.4 fL
  MCV, Median: 70.0 fL
[2]; [27]
  MCV, Mean: 70.6 fL
  MCV, Median: 68.0 fL
[2]; Week 0, Week 3 and Week 7
  mean corpuscular volume value (MCV), time-dependent change: increased along with the continuous administration
[2]; Week 3, JTT-751 250 mg group
  MCV, Mean: 73.9 fL
  MCV, Median: 74.0 fL
[2]; Week 3, JTT-751 500 mg group
  MCV, Mean: 75.3 fL
  MCV, Median: 75.0 fL
[2]; Week 3, JTT-751 1000 mg group
  MCV, Mean: 78.3 fL
  MCV, Median: 77.0 fL
[2]; Week 3, JTT-751 1500 mg group
  MCV, Mean: 76.7 fL
  MCV, Median: 77.0 fL
[2]; Week 7, JTT-751 250 mg group
  MCV, Mean: 78.4 fL
  MCV, Median: 79.5 fL
[2]; Week 7, JTT-751 500 mg group
  MCV, Mean: 79.8 fL
  MCV, Median: 81.0 fL
[2]; Week 7, JTT-751 1000 mg group
  MCV, Mean: 82.5 fL
  MCV, Median: 82.0 fL
[2]; Week 7, JTT-751 1500 mg group
  MCV, Mean: 81.4 fL
  MCV, Median: 81.0 fL
[2]; end of administration
  mean corpuscular volume value (MCV) at the end of administration: a value around the normal value
[3]; 1000 mg administration group and 1500 mg administration group
  intact FGF23 value (iFGF23), time-dependent change: decreased along with the continuous administration of the JTT-751 tablet and improved
[3]; [20]
  iFGF23, Mean: 34.74 pg/mL
  iFGF23, Median: 33.65 pg/mL
[3]; [21]
  iFGF23, Mean: 41.06 pg/mL
  iFGF23, Median: 38.20 pg/mL
[3]; [22]
  iFGF23, Mean: 33.62 pg/mL
  iFGF23, Median: 30.40 pg/mL
[3]; [23]
  iFGF23, Mean: 36.30 pg/mL
  iFGF23, Median: 35.00 pg/mL
[3]; [24]
  iFGF23, Mean: 36.73 pg/mL
  iFGF23, Median: 33.90 pg/mL
[3]; [25]
  iFGF23, Mean: 43.53 pg/mL
  iFGF23, Median: 42.05 pg/mL
[3]; [26]
  iFGF23, Mean: 41.93 pg/mL
  iFGF23, Median: 42.50 pg/mL
[3]; [27]
  iFGF23, Mean: 46.09 pg/mL
  iFGF23, Median: 44.00 pg/mL
[3]; Week 7, JTT-751 250 mg group
  iFGF23, Mean: 34.74 pg/mL
  iFGF23, Median: 33.65 pg/mL
[3]; Week 7, JTT-751 500 mg group
  iFGF23, Mean: 41.06 pg/mL
  iFGF23, Median: 38.20 pg/mL
[3]; Week 7, JTT-751 1000 mg group
  iFGF23, Mean: 33.62 pg/mL
  iFGF23, Median: 30.40 pg/mL
[3]; Week 7, JTT-751 1500 mg group
  iFGF23, Mean: 36.30 pg/mL
  iFGF23, Median: 35.00 pg/mL

Source: patent US20210085711A1 (Japan Tobacco Inc., priority 2017, published 2021)
